Test results: patent publication US20210261569A1, “FUSED HETEROCYCLIC DERIVATIVES HAVING SELECTIVE BACE1 INHIBITORY ACTIVITY” (Shionogi & Co., Ltd., priority 2018, published 2021)

What was measured:
[1] = target: T1, recombinant BACE2 protein (Homo sapiens, UniProt Q9Y5Z0); assay: BACE2 biochemical FRET based assay; details: pH 5.0, 450 min at room temperature
T1 construct: recombinant BACE2 protein in a final concentration of 0.4 μg/mL
T1 sequence (Q9Y5Z0 63-518): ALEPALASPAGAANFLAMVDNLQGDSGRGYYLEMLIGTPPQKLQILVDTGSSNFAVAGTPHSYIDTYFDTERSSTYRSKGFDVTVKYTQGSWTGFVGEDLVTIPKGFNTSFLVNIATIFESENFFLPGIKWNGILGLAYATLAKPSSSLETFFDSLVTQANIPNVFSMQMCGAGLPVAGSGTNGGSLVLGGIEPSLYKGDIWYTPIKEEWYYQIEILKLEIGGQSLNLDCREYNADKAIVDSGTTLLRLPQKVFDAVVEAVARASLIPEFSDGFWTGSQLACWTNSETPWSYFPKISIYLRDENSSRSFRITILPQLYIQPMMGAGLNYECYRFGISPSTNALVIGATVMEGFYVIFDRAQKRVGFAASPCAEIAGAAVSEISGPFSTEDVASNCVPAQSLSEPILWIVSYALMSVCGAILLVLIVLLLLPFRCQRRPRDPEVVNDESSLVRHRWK
Source text: This assay is a Fluorescence Resonance Energy Transfer Assay (FRET) based assay. The substrate for this assay contains the ‘Swedish’ Lys-Met/Asn-Leu mutation of the amyloid precursor protein (APP) beta-secretase cleavage site. This substrate also contains two fluorophores: (7-methoxycoumarin-4-yl) acetic acid (Mca) is a fluorescent donor with excitation wavelength at 320 nm and emission at 405 nm and 2,4-dinitrophenol (Dnp) is a proprietary quencher acceptor. […] Upon cleavage by the beta-secretase, the fluorophore Mca is separated from the quenching group Dnp, restoring the full fluorescence yield of the donor. The increase in fluorescence is linearly related to the rate of proteolysis.
Briefly in a 384-well format recombinant BACE2 protein in a final concentration of 0.4 μg/mL was incubated for 450 minutes at room temperature with 10 μM substrate in incubation buffer (final concentrations: 33.3 mM Citrate buffer pH 5.0, 0.033% PEG, 2% DMSO) in the absence or presence of compound. Next the amount of proteolysis was directly measured by fluorescence measurement at T=0 and T=450 (excitation at 320 nm and emission at 405 nm). Results were expressed in RFU (Relative Fluorescence Units), as difference between T450 and T0.
A best-fit curve was fitted by a minimum sum of squares method to the plot of % Controlmin versus compound concentration. From this an IC50 value (inhibitory concentration causing 50% inhibition of activity) can be obtained.

[2] = system: Abeta 1-42 in cerebrospinal fluid (CSF); assay: Pharmacology in the beagle dog: beta-amyloid profile in cerebrospinal fluid; type: in vivo; details: single dose 0.63 mg/kg
Description: Test compounds were tested to evaluate the effect on the beta-amyloid profile in cerebrospinal fluid (CSF) of dogs after a single dose, in combination with pharmacokinetic (PK) follow up and limited safety evaluation.
In the case of compounds shown below, two or 4 beagle dogs (1 or 2 male, 1 or 2 female) were dosed with vehicle (1 mL/kg of an aqueous solution of 20% cyclodextrin) and 4 beagle dogs (2 males and 2 females) per dose group were dosed with test compound at the doses indicated in the following Table in an aqueous 20% cyclodextrin solution with a concentration in mg/mL identical to the dose given in mg/kg) on an empty stomach.
CSF was taken in conscious animals directly from the lateral ventricle via a cannula which was screwed in the skull and covered with subcutaneous tissue and skin, before and at 4, 8, 25 and 49 hours after dosing. Eight hours after dosing the animals got access to their regular meal for 30 minutes. Blood was taken for PK follow up (0.5, 1, 2, 4, 8, 25 and 49 hours) and serum samples for biochemistry were taken before and at 8 and 25 h after dosing. The CSF samples were used for measurement of Abeta 1-37, Abeta 1-38, Abeta 1-40 and Abeta 1-42.

Row | Compound | IC50 [1] | % change in Abeta 1-42 from own baseline ([2]; 8 h) | % change in Abeta 1-42 from own baseline ([2]; 24 h or 25 h)
1 | C[C@@H]1OC[C@H]2[C@@H]1OC(N)=N[C@]2(CF)c1cc(NC(=O)c2cnc(OCF)cn2)ccc1F [Compound I-082] | 309 nM | −58% | −41%
2 | NC1=N[C@](CF)(c2cc(NC(=O)c3cnc(OCF)cn3)ccc2F)[C@H]2[C@H](CC(F)F)OC[C@H]2O1 [Compound I-116] | 389 nM |  | 
